Experimental data taken from patent EP1785417A2, “Novel non-psychotropic cannabinoids” (priority 2000, dated 2001).

Assays:
transient MCAo in rats = experiment: Transient MCAo evaluated by the staircase test; format: in vivo; settings: for reduction of infarct volume compared to vehicle: not statistically different
Experimental: The materials for this procedure are identical to those from Physiological Example 5, except for the different concentrations of PRS-211,095. The procedural differences are as follows: • Male Sprague Dawley rats, 230-270 gr (Harlan, Israel) were used. The following compounds and their respective concentrations were tested: • Dexanabinol and analogs PRS-211,095 and PRS-211,220 in PEG ethanol cosolvent 50 mg/ml. Dexanabinol, the analogs and their vehicle were diluted in Intralipid® 20% (Pharmacia) prior to drug administration.
The procedure is essentially as described in Montoya et al. (Montoya, Campbell-Hope, Pemberton and Dunnet, J. Neurosci. Meth. 36:219-228, 1991) Animals were kept under mild food deprivation for 3-5 days, receiving 15-gr. food once a day (between 16:00 and 17:00) and free access to water. Animals were trained prior to the test for 3-5 days according to the protocol of Sharkey et. al. (Sharkey, Crawford, Butcher and Martson, Stroke 27:2282-2286, 1996).
In brief, the staircase box contains two rows of seven stairs in each. Two 45 mg food pellets were placed on each step. Animals were placed in the box for 15 minutes sessions. At the end of the session the number of eaten (grasped) and displaced pellets was counted and recorded. Animals were tested twice a day, 4 hours apart. The first session was performed between 8-9 AM and second between 12-13 PM. The animals were trained until they grasped (ate) at least 8 pellets from each set of stairs for two consecutive sessions. Up to one week after the end of the successful training session the animals underwent transient MCAo. Transient MCAo was performed in essentially the same manner as described in Physiological example 5 with the following modification at step i: • Two minutes prior to thread removal rats were re-anesthetized and administered IV with Dexanabinol 5mg/kg, analogs PRS-211,220 or PRS-211,095 at 0.5, 2.5, 5 or 10 mg/kg or vehicle 5 ml/kg. One additional group was sham-treated.
Animals were allowed to recover from the surgery for five days. The mild food deprivation was re-employed during the days following the ischemic insult. They were tested in the staircase box using the above method for 9-12 days. Animals were weighed twice a week during this period.
At the end of the evaluation period, animals were euthanized with pentobarbitone 100 mg/kg IP. The animals were perfused through the heart with heparinized 4% formaldehyde solution in PBS (pH 7.4). Brains were then removed, and kept in the same solution for at least 24h. Then the brains - from the rostral side of the cortex to the cerebellum- were sunk in 30% sucrose in PBS, cryosectioned (20 µm), dried and stained with thionin for histological evaluation of the brain infarct volume. Eight sections at the levels of: 3.3;+2.8;+1.8; +0.8; -0.4;-1.4; -2.2; and -3.4 from Bregma were measured (Swanson, Rat Brain Atlas, 1992). Sections were captured by a CCD camera (V-tech MP-470) and image analyzed (Scion image 1.62A). Infarct size was determined from the series of the 8 sections by either calculation of the infarct volume (mm3) by summing the series of mean lesion areas of two adjacent sections multiplied by the distance between them or calculation of the mean infarct size as percentage of the contralateral hemisphere size; calculation of the mean of the surviving ipsilateral side as percentage of the contralateral hemisphere size; calculation of the mean ipsilateral side ventricle as percentage of the contralateral hemisphere ventricle.
• a. The infarct size was compared using ANOVA (analysis of variance) followed by Duncan's post hoc test. • b. […]

[1] = tested on: transient middle cerebral artery occlusion in rats; experiment: Transient middle cerebral artery occlusion (MCAo), infarct size evaluation; format: in vivo; settings: for Mortality rate: 5 mg/kg IV at 2+0 hours; for reduction of infarct size: IV, one week after the ischemic insult
Description: Experimental design. The design was a randomized one, performed in a masked fashion as to whether drug or vehicle was being given, and an attempt was made to generate approximately equal numbers of drug- and vehicle-treated animals.
• a. Male rats (8 /treatment group) 320-380 gr. (Harlan Israel). • b. Halothane (Rhone Poulenc France) • c. Pentobarbitone (Pental Veterinary, CTS Israel). • d. Poly - L - Lysine (Sigma, USA). • e. Silk suture material 3-0 and 4-0. • f. Nylon (Polyamid) suture material 3-0. Four cm pieces were cut and positioned in a solution of 1% Poly - L - Lysine for 1 minute and dried in an oven (60 ° C) for 60 minutes. The tip of each piece was rounded under a flame. • g. Saline (Teva Medical). • h. Blank cremophor ethanol cosolvent (Pharmos). • i. Dexanabinol in cremophor ethanol cosolvent 50 mg/ml. (Both Dexanabinol and its vehicle were diluted in saline prior to drug administration. • j. Analogs PRS-211,092, PRS-211,095, PRS-211,128 PRS-211,132 and PRS-211,220 in cremophor ethanol cosolvent, 50 mg/ml. • k. The analogs were diluted in saline prior to drug administration.
• a. Surgical details of the MCAo method used for testing dexanabinol analogs, are presented in Belayev, et al., (Belayev, Busto, Weizhao, and Ginsberg, Stroke 26:2313-2319, 1995) which is incorporated herein in its entirety by reference. • b. Two hours after the start of MCAO, the animals were reanesthetized with halothane, the neck wound was re-opened and the nylon thread pulled out of the Internal carotid artery (ICA). The skin wound was then closed with 3-0 silk suture material and the animals allowed to recover from the anesthesia. • c. Three sets of animals were tested. In the first test immediately (2+0 hours) before thread removal the animals were injected IV with either analogs PRS-211,095, PRS-211,128, PRS-211,132, or Dexanabinol (PRS-211,007) each at a dosage of 5 mg/kg. One group of animals was treated with 5ml/kg vehicle alone. In another group, the animals subjected to "sham" operation, the suture was passed into the ICA, as described above, but immediately withdrawn. In the second set dexanabinol, PRS-211,092, PRS-211,095 and PRS-211,220 were used, at 2+0 hours. In the third set dexanabinol, PRS-211,092, PRS-211,095 and PRS-211,220 were administered 1 hour after thread removal (2+1 hours). Laser Doppler Flow (LDF) determined the success of MCAo - a drop of more then 50% in cerebral blood flow was considered as a sign of successful MCAo. Although LDF was a helpful corroborative sign, clinical outcome remained the final inclusion/exclusion criterion, since, with the exception of the PRS-211,220 staircase study, LDF was introduced only after initiation of the study.
A detailed investigation of neurological performance was carried out on the first, third and the 7th day after the MCAo. Two parameters were examined: posture and the flexion reflex (based on Nokon and Chuang, NeuroReport 9, 1998: 2081-2084). Animals were scored according to their performance:
One week after the ischemic insult, animals were euthanized with pentobarbitone 100 mg/kg IP. The animals were perfused through the heart with heparinized 4% formaldehyde solution in PBS (pH 7.4). Brains were then removed, and kept in the same solution before preparation for histological evaluation of the brain infarct volume.

Row | Structure (SMILES) | contralateral performance, pellet consumption (transient MCAo in rats; 0.5 mg/kg) | contralateral performance, pellet consumption (transient MCAo in rats; 2.5 mg/kg) | infarct volume, protection (transient MCAo in rats; 2.5 mg/kg, histopathology) | contralateral performance, pellet consumption (transient MCAo in rats; 5 mg/kg) | reduction of infarct volume compared to vehicle (transient MCAo in rats; 5 mg/kg, histopathology) [%] | contralateral performance, pellet consumption (transient MCAo in rats; 10 mg/kg) | Mortality Rate(%) (transient MCAo in rats; Table 4, 0.5 mg/kg IV) | No. Dead Animals (transient MCAo in rats; Table 4, 0.5 mg/kg IV) | Mortality Rate(%) (transient MCAo in rats; Table 4, 2.5 mg/kg IV) | No. Dead Animals (transient MCAo in rats; Table 4, 2.5 mg/kg IV) | Mortality Rate(%) (transient MCAo in rats; Table 4, 5 mg/kg IV) | No. Dead Animals (transient MCAo in rats; Table 4, 5 mg/kg IV) | Mortality Rate(%) (transient MCAo in rats; Table 4, 10 mg/kg IV) | No. Dead Animals (transient MCAo in rats; Table 4, 10 mg/kg IV) | Mortality rate [1] | reduction of infarct size [1] [%] | Behavioral / Neurological outcome ([1]; compared to the other treatment groups) | Mortality Rate(%) (transient MCAo in rats; Table 5, 0.5 mg/kg IV) | No. Dead Animals (transient MCAo in rats; Table 5, 0.5 mg/kg IV)
1 | CCCCCCC(C)(C)c1cc(O)c2c(c1)OC(C)(C)[C@H]1CC=C(Cn3ccnc3)C[C@H]21 (single isomer, unassigned) [211,095-000] | moderately improved pellet consumption | moderately improved pellet consumption | No protection | robust improvement | 35 | robust improvement | 21 | 3 | 30 | 3 | 0 | 0 | 9 | 1 | No mortality | 60 | fewer neurological deficits and recovered faster |  | 
2 | CCCCCCC(C)(C)c1cc(O)c2c(c1)OC(C)(C)[C@H]1CC=C(CO)C[C@H]21 [211,007-000 HU-211, 1,1 dimethyl heptyl-(3 S,4S)-7-hydroxy-Δ^6-tetrahydrocannabinol, reference compound] | No improvement |  |  |  | 35 |  |  |  |  |  | 0 | 0 |  |  | 9% | 48 |  | 36 | 4
